Reference: patent US8946291B2, “Compositions and methods for treating pigmentary conditions and melanoma” (The United States of America, as represented by the …, priority 2008, dated 2015)

Key:
SOX9 [1] = test: SOX9 protein expression in normal human melanocytes (metabolic labeling, immunoblotting, immunocytochemistry); format: cell-based; settings: for SOX9 regulation in human melanocytes: statement in the discussion
Protocol: Cultures in 100 mm dishes were solubilized in […] mammalian protein extraction reagent (Pierce Biotechnology, Rockford, Ill., USA) and Protease Inhibitor cocktail (Roche, Mannheim, Germany). Protein concentrations of extracts were measured using the BCA protein assay kit (Pierce, Rockford, Ill., USA). Cell extracts (20 μg) were separated on 8-16% gradient SDS polyacrylamide gels (Invitrogen). After electrophoresis, proteins were transferred electrophoretically from the gels to Invitrolon PVDF transfer membranes (Invitrogen). The filters were incubated with antibodies to SOX9 (rabbit 1:500; Abeam, Cambridge, UK), SOX10 (goat 1:200; Santa Cruz, Santa Cruz, Calif., USA), DCT (1:2,000; (22)), Tyrosinase (rabbit 1:10,000; (22)), or GAPDH (rabbit 1:10,000, Santa Cruz) for 1 h at 23° C. to overnight at 4° C. (depending on the antibody) and were then incubated with horseradish peroxidase-linked anti-rabbit, anti-mouse or anti-goat whole antibodies (at 1:1,0000, GE Healthcare, Buckinghamshire, UK) at room temperature for 1 h. Antigens were detected using ECL-plus Western Blotting Detection System (GE Healthcare). Blots were quantitated using Scion Image Software (Scion Corp., Frederick, Md., USA). Each experiment was performed at least in triplicate.
Melanocyte cultures in two well Lab-Tek chamber slides (Nalge Nune International Corp., Naperville, Ill., USA) were processed for indirect fluorescence to detect the expression of proteins using primary antibodies to SOX9 (rabbit 1:50, Abcam), MITF-ab3 (mouse 1:100 dilution; NeoMarkers, Fremont, Calif., USA), DCT (rabbit 1:7,500; (22)) and Tyrosinase (rabbit 1:700; (22)). Bound antibodies were visualized with appropriate secondary antibodies, Alexa Fluor® 488 goat anti-rabbit IgG (H+L) (Molecular Probes, Inc., Eugene, Oreg., USA), Alexa Fluor® 594 mouse anti-rabbit IgG (H+L) (Molecular Probes), Alexa Fluor® 488 goat anti-mouse IgG (H+L) (Molecular Probes) or Alexa Fluor® 594 goat anti-mouse IgG (H+L) (Molecular Probes) at 37° C. for 30 min at 1:500 dilution with 5% goat serum. DAPI (Vector, Burlingame, Calif.; USA) was used as a counter-stain. The green fluorescence produced by Alexa 488®, red produced by Alexa 594®, and blue by DAPI was observed and captured using a Leica DMR B/D MLD fluorescence microscope (Leica, Wetzlar, Germany) and a Dage-MTI 3CCD 3-chip color video camera (Dage-MTI, Michigan City, Ind., USA).
Radioactive metabolic labeling and immunoprecipitation was performed as described previously (58). Where indicated, cells were irradiated with 21 mJ/cm^2 UVB and/or chemical agents were added from the “pulse” period to the “chase” period. Cell extracts were incubated with normal rabbit serum (Vector, Burlingame, Calif., USA) and were then incubated with protein G beads (GE Healthcare). The supernatants were incubated with SOX9 (Abcam) or GAPDH (Santa-Cruz) antibodies. The immune-complexes were separated by incubation with beads and were further washed with immunoprecipitate lysis buffer. The pellets were eluted, electrophoresed and visualized by autoradiography.

A375 cells = test: Proliferation assay (crystal violet) in A375 melanoma cells; format: cell-based, human
Protocol: B16/F10 melanoma cells, SKMel 28 and A375 cells were obtained from the ATCC (Manassas, Va., USA). Mel Juso cells are a generous gift from Dr. Hornyak at the National Cancer Institute. A375, SK Mel 28 and B16 cells were grown at 37° C. under 5% CO2 in DMEM supplemented with 7% Fetal Bovine Serum (FBS) and penicillin (100 U/ml) and streptomycin (50 ug/ml). Mel Juso cells were grown at 37° C. under 5% CO2 in RPMI medium supplemented with 10% FBS and penicillin (100 U/ml) and streptomycin (50 ug/ml). Retinoic acid (10^−7M) and Prostaglandin D2 (0.5 ug/ml) were purchased from Sigma-Aldrich (St-Louis, Mo., USA).
The cells were transfected with a pBabe vector to give them a resistance to puromycin. At the same time, they were transfected with SOX9 cDNA or empty vector as control. Depending on the experiment, cells were also transfected the day after with SiRNA p21 or SiRNA Mock. After 10 to 15 d, the clones were fixed and stained with crystal violet. Proliferation was measured according to the optical density of the color.

SOX9 [2] = test: SOX9 expression in A375 cells (S35 labeling and immunoprecipitation / immunoblotting); format: cell-based, human; settings: A375 cells treated with PGD2 for 72 h
Protocol: (§1) SOX9 has been extensively studied in chondrocytes due to its key role for collagen II synthesis. […] First, S35 labeling was performed on A375 cells treated or not treated with PGD2 for 72 h. Proteins were then extracted and immunoprecipitated with SOX9 and PRAME antibodies (GAPDH was used as a control). SOX9 was increased after treatment with PGD2 whereas PRAME was decreased (FIG. 3B). […] A further proliferation assay with or without RA treatment, using PGD2 instead of the transfection with SOX9, was performed.
(§2) Cells were solubilized in M-PER® mammalian protein extraction reagent (Pierce Biotechnology, Rockford, Ill., USA) containing Protease Inhibitor cocktail (Roche, Mannheim, Germany). Protein concentrations of extracts were measured using the BCA protein assay kit (Pierce, Rockford, Ill., USA). Cell extracts (30 μg) were separated on SDS polyacrylamide gels (Invitrogen). After electrophoresis, proteins were transferred electrophoretically from the gels to Invitrolon PVDF transfer membranes (Invitrogen). […] Antigens were detected using ECL-plus Western Blotting Detection System (GE Healthcare). […]

PRAME = PRAME expression in melanoma cells (immunoprecipitation / immunoblotting); format: cell-based, human; settings: A375 cells treated with PGD2 for 72 h
Protocol: as §1, §2

melanoma cells = settings: literature (14-17); cited from earlier work
SOX9 [3] = settings: by promoting phosphorylation and nuclear translocation, literature (13); cited from earlier work
DCT promoter = test: Luciferase assay of DCT promoter in HeLa cells; format: cell-based, human; settings: forskolin (data not shown)
Protocol: (§3) B16 melanoma cells or HeLa cells were seeded in 24-well dishes and were transfected with 0.3 μg of the luciferase reporter plasmid and 0.05 μg of pCMVβGal (Promega, Madison, Wis., USA) to control the variability of transfection efficiency. In some experiments, SOX9 was over-expressed using 0.1 μg of the pcDNA3 encoding SOX9, or was silenced with SOX9 siRNA (100 nM). Empty pcDNA3 or siRNA scrambles were used as controls depending on the experiments. All transfections were made with Lipofectamine (Invitrogen) according to the instructions of the manufacturer. Thirty-six h later, cells were washed with a saline phosphate buffer and lysed with reporter lysis buffer (Promega). Soluble extracts were harvested and assayed for luciferase and β-galactosidase activities. All transfections were repeated at least 3 times using different plasmid preparations and gave similar results. The pMITF wild-type and mutants, pDCT, pTYR, and pCRE constructs used were described previously (26, 43, 59).

TYR promoter = test: Luciferase assay of TYR promoter in HeLa cells; format: cell-based, human; settings: forskolin (data not shown)
Protocol: as §3

SOX9 [4] = test: SOX9 mRNA expression in normal human melanocytes by RT-PCR; format: cell-based; settings: n-MP NHM, 4 h after ASP treatment
Description: Total RNA was reverse-transcribed using SuperScript III (Invitrogen). PCR reactions consisted of 25 cycles for β-actin and 35 cycles for SOX9 using Taq DNA polymerase (Invitrogen). PCR products for β-actin and SOX9 were 838 bp, and 288 bp, respectively, and were electrophoresed in parallel with DNA molecular mass markers (Invitrogen). Oligonucleotide primers used for PCR were based on mRNA sequences as follows: human SOX9 sense primer 5′-[…]-3′ (SEQ ID NO:5); human SOX9 antisense primer 5′-[…]-3′ (SEQ ID NO:6), β-actin sense primer 5′-[…]-3′ (SEQ ID NO:7); β-actin antisense primer 5′-[…]-3′ (SEQ ID NO:8). Each experiment was repeated at least in triplicate independently.

[5] = tested on: mouse melanocytes, melanoma cells, NHM; settings: literature (38-40); cited from earlier work
[6] = NHM, 21 mJ/cm^2 UVB, pretreatment with H89

With `O=S(=O)(NCCNC/C=C/c1ccc(Br)cc1)c1cccc2cnccc12` [H89] the “UVB-induced expression of SOX9” value (SOX9 [1]; [6]) was “prevented the increased expression” and the “UVB-induced expression of SOX9 phosphorylated at serine 181” value (SOX9 [1]; [6]) was “prevented the increased expression”.

For `CCCCC[C@H](O)/C=C/[C@H]1C(=O)C[C@H](O)[C@@H]1C/C=C\CCCC(=O)O` [PGD2, prostaglandin D2], the “proliferation of A375 cells” value (A375 cells; PGD2 0.5 μg/μl alone) was “inhibited”, the SOX9 expression (SOX9 [2]) was “increased” and the PRAME expression (PRAME) was “decreased”. The “proliferation of melanoma cells and other cancer cells” value (melanoma cells) was “decrease the proliferation” and the “SOX9 activity in chondrocytes” value (SOX9 [3]) was “increase SOX9 activity”.

In the case of `CC1=C(/C=C/C(C)=C/C=C/C(C)=C/C(=O)O)C(C)(C)CCC1` [RA, retinoic acid], the “proliferation of A375 cells” value (A375 cells; RA 10^−7 M alone) is reported as “no effect”.

With `C=C[C@@]1(C)CC(=O)[C@]2(O)[C@@]3(C)[C@@H](O)CCC(C)(C)[C@@H]3[C@H](O)[C@H](OC(C)=O)[C@@]2(C)O1` [forskolin] the DCT promoter activity (DCT promoter) was “no effect” and the TYR promoter activity (TYR promoter) was “no effect”.

For Δ2-PGJ2, the “proliferation of melanoma cells and other cancer cells” value (melanoma cells) is given as “decrease the proliferation”.

In the case of αMSH, the “SOX9 regulation in human melanocytes” value (SOX9 [1]) is reported as “up-regulated”.

B1: ASP: recombinant mouse protein, antagonist of the melanocortin I receptor (MC1R) (protein, UniProt Q03288 23-131, looked up)
Agouti-signaling protein: HLALEETLGDDRSLRSNSSMNSLDFSSVSIVALNKKSKKISRKEAEKRKRSSKKKASMKKVARPPPPSPCVATRDSCKPPAPACCDPCASCQCRFFGSACTCRVLNPNC
With B1 the “SOX9 expression (immunoblotting)” value (SOX9 [1]; n-MP NHM treated 48 h with ASP) was “significantly decreased”, the “SOX9 regulation in human melanocytes” value (SOX9 [1]) was “down-regulated” and the “expression level of SOX9 (RT-PCR)” value (SOX9 [4]) was “decreased”. The melanin formation [5] was “inhibits melanin formation”.
